ChEMBL document CHEMBL4130345, “Discovery of a series of dihydroquinoxalin-2(1H)-ones as selective BET inhibitors from a dual PLK1-BRD4 inhibitor” (Eur J Med Chem, 2017)
Activity calls are given as the source filed them. The rule behind the calls is not given here.

What was measured:
[1] = target: T1, Bromodomain-containing protein 4 (Homo sapiens, UniProt O60885); assay: Inhibition of human partial length BRD4 bromodomain 1 long isoform (N44 to E168 residues) expressed in Escherichia coli BL21 assessed as residual activity at 1 uM after 1 hr by qPCR method relative to control
[2] = target: Bromodomain testis-specific protein (Homo sapiens) (UniProt Q58F21); assay: Inhibition of human partial length BRDT bromodomain 1 (N21 to E137 residues) expressed in Escherichia coli BL21 assessed as residual activity at 1 uM after 1 hr by qPCR method relative to control
[3] = target: Bromodomain-containing protein 9 (Homo sapiens) (UniProt Q9H8M2); assay: Inhibition of human partial length BRD9 (R130 to V259 residues) expressed in Escherichia coli BL21 assessed as residual activity at 1 uM after 1 hr by qPCR method relative to control
Sequence of Bromodomain-containing protein 9 (Homo sapiens) (Q9H8M2 whole entry, the tested form may be a part): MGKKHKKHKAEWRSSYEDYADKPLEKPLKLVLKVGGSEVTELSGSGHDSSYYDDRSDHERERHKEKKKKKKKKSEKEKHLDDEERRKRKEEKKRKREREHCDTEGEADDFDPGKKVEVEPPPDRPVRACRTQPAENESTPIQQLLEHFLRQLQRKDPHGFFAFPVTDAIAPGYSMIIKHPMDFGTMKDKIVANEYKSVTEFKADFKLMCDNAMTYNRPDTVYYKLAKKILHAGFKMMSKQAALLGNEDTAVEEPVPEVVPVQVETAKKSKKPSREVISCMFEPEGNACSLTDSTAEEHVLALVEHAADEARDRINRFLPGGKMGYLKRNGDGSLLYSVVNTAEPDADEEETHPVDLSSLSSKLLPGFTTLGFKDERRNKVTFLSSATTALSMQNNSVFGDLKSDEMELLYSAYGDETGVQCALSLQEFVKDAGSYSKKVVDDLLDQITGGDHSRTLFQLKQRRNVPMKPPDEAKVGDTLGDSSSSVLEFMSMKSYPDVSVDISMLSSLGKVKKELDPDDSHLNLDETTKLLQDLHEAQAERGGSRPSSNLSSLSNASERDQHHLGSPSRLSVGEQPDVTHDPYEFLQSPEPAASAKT

[4] = target: Transcription initiation factor TFIID subunit 1 (Homo sapiens) (UniProt P21675); assay: Inhibition of human partial length TAF1 bromodomain 2 (D1521 to D1656 residues) expressed in Escherichia coli BL21 assessed as residual activity at 1 uM after 1 hr by qPCR method relative to control
Sequence of Transcription initiation factor TFIID subunit 1 (Homo sapiens) (P21675 whole entry, the tested form may be a part): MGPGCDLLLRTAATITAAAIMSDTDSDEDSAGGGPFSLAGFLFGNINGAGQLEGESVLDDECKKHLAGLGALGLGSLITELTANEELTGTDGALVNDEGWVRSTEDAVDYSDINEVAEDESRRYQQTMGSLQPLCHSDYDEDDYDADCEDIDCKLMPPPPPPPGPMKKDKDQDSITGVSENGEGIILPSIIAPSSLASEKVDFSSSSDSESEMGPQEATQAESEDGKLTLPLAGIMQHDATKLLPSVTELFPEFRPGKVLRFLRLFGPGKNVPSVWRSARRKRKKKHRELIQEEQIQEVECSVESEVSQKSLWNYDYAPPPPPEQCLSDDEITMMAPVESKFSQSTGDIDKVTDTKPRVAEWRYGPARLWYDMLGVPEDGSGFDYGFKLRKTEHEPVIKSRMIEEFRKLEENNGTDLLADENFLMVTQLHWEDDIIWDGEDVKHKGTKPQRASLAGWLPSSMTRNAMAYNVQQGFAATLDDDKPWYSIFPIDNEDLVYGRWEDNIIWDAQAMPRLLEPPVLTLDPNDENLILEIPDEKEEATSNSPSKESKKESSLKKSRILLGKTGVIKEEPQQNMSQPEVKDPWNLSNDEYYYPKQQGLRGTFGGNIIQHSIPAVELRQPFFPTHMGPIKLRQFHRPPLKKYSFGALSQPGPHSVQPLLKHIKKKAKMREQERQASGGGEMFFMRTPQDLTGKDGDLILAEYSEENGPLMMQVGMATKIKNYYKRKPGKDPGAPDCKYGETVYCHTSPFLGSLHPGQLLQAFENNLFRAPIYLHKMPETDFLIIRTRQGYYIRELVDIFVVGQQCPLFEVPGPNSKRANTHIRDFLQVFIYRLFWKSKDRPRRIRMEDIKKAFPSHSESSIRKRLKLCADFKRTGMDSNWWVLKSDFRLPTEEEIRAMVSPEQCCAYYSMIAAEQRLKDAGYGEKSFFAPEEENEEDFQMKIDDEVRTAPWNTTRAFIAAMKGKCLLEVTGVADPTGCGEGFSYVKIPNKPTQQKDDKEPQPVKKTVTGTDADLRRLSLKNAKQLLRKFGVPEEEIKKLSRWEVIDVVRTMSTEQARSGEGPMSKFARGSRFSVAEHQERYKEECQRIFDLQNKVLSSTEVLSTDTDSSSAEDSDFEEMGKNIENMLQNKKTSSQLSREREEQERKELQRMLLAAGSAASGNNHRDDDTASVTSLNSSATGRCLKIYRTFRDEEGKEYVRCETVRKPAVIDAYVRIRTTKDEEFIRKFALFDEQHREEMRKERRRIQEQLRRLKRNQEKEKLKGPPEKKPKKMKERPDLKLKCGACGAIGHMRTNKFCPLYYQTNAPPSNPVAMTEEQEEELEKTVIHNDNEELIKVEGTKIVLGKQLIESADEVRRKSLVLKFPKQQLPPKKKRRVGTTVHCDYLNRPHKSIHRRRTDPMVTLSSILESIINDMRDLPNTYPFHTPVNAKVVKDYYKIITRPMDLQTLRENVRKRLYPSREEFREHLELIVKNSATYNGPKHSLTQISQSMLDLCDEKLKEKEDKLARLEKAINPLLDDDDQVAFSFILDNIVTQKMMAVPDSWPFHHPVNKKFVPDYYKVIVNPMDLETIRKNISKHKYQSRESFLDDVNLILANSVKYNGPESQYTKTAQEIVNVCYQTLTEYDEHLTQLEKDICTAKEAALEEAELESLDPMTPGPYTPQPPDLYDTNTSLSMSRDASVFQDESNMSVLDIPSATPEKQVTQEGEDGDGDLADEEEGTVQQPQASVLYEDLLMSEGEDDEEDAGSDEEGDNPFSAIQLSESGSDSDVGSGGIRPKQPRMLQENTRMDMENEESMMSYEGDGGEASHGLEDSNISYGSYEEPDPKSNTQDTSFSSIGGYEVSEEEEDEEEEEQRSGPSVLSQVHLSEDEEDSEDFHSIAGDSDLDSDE

[5] = target: Bromodomain-containing protein 3 (Homo sapiens) (UniProt Q15059); assay: Inhibition of human partial length BRD3 bromodomain 1 (P24 to E144 residues) expressed in Escherichia coli BL21 assessed as residual activity at 1 uM after 1 hr by qPCR method relative to control
Sequence of Bromodomain-containing protein 3 (Homo sapiens) (Q15059 2-726 limits assumed): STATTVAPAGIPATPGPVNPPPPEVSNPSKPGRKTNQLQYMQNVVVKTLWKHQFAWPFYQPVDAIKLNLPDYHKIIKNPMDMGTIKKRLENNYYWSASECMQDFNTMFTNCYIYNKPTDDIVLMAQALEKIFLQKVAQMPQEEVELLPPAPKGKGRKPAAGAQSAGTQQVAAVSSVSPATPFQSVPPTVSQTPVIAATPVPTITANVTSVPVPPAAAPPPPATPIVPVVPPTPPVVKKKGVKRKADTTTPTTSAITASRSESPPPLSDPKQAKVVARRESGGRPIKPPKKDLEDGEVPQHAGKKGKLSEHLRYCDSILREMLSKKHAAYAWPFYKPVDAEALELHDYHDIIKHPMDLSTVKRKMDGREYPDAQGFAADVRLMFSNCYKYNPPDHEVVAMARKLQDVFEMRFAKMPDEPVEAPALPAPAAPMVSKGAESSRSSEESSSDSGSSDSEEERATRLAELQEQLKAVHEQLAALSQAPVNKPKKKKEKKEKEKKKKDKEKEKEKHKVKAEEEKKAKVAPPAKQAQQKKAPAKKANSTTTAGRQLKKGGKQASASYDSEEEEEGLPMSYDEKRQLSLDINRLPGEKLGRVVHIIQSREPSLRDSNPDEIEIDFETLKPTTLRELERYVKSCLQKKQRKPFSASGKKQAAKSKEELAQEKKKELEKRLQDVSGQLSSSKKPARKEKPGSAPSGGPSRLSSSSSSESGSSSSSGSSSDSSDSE

[6] = target: T1, Bromodomain-containing protein 4; assay: Inhibition of BRD4 in human TY82 cells assessed as downregulation of c-Myc protein expression at 0.2 to 1 uM after 24 hrs by Western blot method; assay type: cell-based
[7] = target: T1, Bromodomain-containing protein 4; assay: Inhibition of BRD4 in human TY82 cells assessed as downregulation of c-Myc mRNA expression after 24 hrs by RT-qPCR method; assay type: cell-based
[8] = target: Transcription intermediary factor 1-alpha (Homo sapiens) (UniProt O15164); assay: Inhibition of human partial length TRIM24 (P790 to P977 residues) expressed in Escherichia coli BL21 assessed as residual activity at 1 uM after 1 hr by qPCR method relative to control
[9] = target: SWI/SNF-related matrix-associated actin-dependent regulator of chromatin subfamily A member 2 (Homo sapiens) (UniProt P51531); assay: Inhibition of human partial length SMARCA2 (S1377 to Q1486 residues) expressed in Escherichia coli BL21 assessed as residual activity at 1 uM after 1 hr by qPCR method relative to control
[10] = target: SWI/SNF-related matrix-associated actin-dependent regulator of chromatin subfamily A member 4 (Homo sapiens) (UniProt P51532); assay: Inhibition of human partial length SMARCA4 (A1448 to S1575 residues) expressed in Escherichia coli BL21 assessed as residual activity at 1 uM after 1 hr by qPCR method relative to control
[11] = AUC (0 to infinity) in ICR (CD-1) mouse at 10 mg/kg, po; assay type: ADME, organism-based; design: dose 10 mg/kg, time infinity, route oral; settings: in vivo
[12] = target: T1, Bromodomain-containing protein 4; assay: Inhibition of BRD4 in human TY82 cells assessed as downregulation of c-Myc mRNA expression at 1 uM after 24 hrs by RT-qPCR method relative to control; assay type: cell-based
[13] = target: ATPase family AAA domain-containing protein 2 (Homo sapiens) (UniProt Q6PL18); assay: Inhibition of human partial length ATAD2A (Q981 to R1108 residues) expressed in Escherichia coli BL21 assessed as residual activity at 1 uM after 1 hr by qPCR method relative to control
[14] = target: Bromodomain adjacent to zinc finger domain protein 2B (Homo sapiens) (UniProt Q9UIF8); assay: Inhibition of human partial length BAZ2B (S2054 to S2168 residues) expressed in Escherichia coli BL21 assessed as residual activity at 1 uM after 1 hr by qPCR method relative to control
[15] = Tmax in ICR (CD-1) mouse at 10 mg/kg, po; assay type: ADME, organism-based; settings: in vivo
[16] = target: Peregrin (Homo sapiens) (UniProt P55201); assay: Inhibition of human partial length BRPF1 (E627 to G740 residues) expressed in Escherichia coli BL21 assessed as residual activity at 1 uM after 1 hr by qPCR method relative to control
[17] = target: Nucleosome-remodeling factor subunit BPTF (Homo sapiens) (UniProt Q12830); assay: Inhibition of human partial length FALZ (S2791 to H2911 residues) expressed in Escherichia coli BL21 assessed as residual activity at 1 uM after 1 hr by qPCR method relative to control
[18] = target: Bromodomain and PHD finger-containing protein 3 (Homo sapiens) (UniProt Q9ULD4); assay: Inhibition of human partial length BRPF3 (E588 to G701 residues) expressed in Escherichia coli BL21 assessed as residual activity at 1 uM after 1 hr by qPCR method relative to control
[19] = target: Bromodomain testis-specific protein (Homo sapiens) (UniProt Q58F21); assay: Inhibition of human partial length BRDT bromodomain 2 (K250 to E382 residues) expressed in Escherichia coli BL21 assessed as residual activity at 1 uM after 1 hr by qPCR method relative to control
[20] = target: Histone acetyltransferase KAT2A (Homo sapiens) (UniProt Q92830); assay: Inhibition of human partial length GCN5L2 (E726 to K837 residues) expressed in Escherichia coli BL21 assessed as residual activity at 1 uM after 1 hr by qPCR method relative to control
[21] = target: Chromatin remodeling regulator CECR2 (Homo sapiens) (UniProt Q9BXF3); assay: Inhibition of human partial length CECR2 (P423 to D543 residues) expressed in Escherichia coli BL21 assessed as residual activity at 1 uM after 1 hr by qPCR method relative to control
[22] = target: Bromodomain-containing protein 3 (Homo sapiens) (UniProt Q15059); assay: Inhibition of human partial length BRD3 bromodomain 2 (G306 to P416 residues) expressed in Escherichia coli BL21 assessed as residual activity at 1 uM after 1 hr by qPCR method relative to control
[23] = AUC (0 to t) in ICR (CD-1) mouse at 10 mg/kg, po; assay type: ADME, organism-based; settings: in vivo
[24] = target: Bromodomain-containing protein 1 (Homo sapiens) (UniProt O95696); assay: Inhibition of human partial length BRD1 (E556 to A688 residues) expressed in Escherichia coli BL21 assessed as residual activity at 1 uM after 1 hr by qPCR method relative to control
[25] = target: Protein polybromo-1 (Homo sapiens) (UniProt Q86U86); assay: Inhibition of human partial length PBRM1 bromodomain 5 (S645 to D766 residues) expressed in Escherichia coli BL21 assessed as residual activity at 1 uM after 1 hr by qPCR method relative to control
Sequence of Protein polybromo-1 (Homo sapiens) (Q86U86 whole entry, the tested form may be a part): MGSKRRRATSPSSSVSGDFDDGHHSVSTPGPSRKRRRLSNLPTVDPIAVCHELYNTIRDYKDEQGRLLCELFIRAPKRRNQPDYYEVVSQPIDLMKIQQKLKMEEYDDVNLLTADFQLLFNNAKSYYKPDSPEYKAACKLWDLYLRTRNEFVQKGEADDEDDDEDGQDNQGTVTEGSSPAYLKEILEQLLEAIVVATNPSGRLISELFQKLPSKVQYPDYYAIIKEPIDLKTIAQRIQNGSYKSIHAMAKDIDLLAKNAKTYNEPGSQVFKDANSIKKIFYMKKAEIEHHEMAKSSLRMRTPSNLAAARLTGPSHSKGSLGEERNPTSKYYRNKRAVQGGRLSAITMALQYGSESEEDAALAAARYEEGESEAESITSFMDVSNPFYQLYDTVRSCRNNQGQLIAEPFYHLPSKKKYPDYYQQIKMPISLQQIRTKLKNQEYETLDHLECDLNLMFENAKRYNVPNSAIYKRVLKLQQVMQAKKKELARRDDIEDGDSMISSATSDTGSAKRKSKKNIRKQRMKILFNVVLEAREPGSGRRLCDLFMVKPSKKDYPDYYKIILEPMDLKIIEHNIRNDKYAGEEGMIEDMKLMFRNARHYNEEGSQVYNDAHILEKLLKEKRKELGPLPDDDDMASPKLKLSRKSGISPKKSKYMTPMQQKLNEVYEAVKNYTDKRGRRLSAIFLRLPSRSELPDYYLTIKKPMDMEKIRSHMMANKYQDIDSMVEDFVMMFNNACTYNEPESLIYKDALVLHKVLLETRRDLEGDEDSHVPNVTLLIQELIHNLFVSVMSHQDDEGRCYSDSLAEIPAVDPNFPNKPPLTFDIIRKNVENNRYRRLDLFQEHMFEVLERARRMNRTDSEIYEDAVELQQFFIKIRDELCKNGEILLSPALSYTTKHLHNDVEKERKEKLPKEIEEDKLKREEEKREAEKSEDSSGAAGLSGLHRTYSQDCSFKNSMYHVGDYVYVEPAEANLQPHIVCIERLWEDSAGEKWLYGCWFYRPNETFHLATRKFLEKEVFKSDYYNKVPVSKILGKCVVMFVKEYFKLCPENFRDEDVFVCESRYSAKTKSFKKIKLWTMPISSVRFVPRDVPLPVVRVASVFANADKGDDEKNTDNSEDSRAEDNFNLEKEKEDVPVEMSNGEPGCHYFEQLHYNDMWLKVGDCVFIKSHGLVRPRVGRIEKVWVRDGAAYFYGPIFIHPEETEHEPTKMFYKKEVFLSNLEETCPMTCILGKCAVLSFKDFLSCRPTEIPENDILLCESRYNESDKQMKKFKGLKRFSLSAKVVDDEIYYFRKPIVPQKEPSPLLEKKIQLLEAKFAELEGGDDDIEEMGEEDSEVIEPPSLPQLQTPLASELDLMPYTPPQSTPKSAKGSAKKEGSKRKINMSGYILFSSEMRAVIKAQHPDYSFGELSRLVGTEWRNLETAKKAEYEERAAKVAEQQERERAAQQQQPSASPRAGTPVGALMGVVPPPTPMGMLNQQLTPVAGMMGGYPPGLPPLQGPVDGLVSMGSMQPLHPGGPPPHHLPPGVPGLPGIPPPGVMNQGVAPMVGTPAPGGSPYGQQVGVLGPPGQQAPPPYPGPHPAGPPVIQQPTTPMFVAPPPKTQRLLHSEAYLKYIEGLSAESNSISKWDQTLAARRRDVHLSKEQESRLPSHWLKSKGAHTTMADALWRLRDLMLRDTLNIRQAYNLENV

[26] = target: Protein polybromo-1 (Homo sapiens) (UniProt Q86U86); assay: Inhibition of human partial length PBRM1 bromodomain 2 (S178 to E291 residues) expressed in Escherichia coli BL21 assessed as residual activity at 1 uM after 1 hr by qPCR method relative to control

Cc1ccc([C@H](C)Nc2ccc3c(c2)N(C2CC2)[C@H](C)C(=O)N3C)c(C)c1
Activity [1]: 1.7% | Activity [2]: 3.1% | Activity [3]: 77% | Activity [4]: 85% | Activity [5]: 0.1% | inhibition [6]: Active | inhibition [7]: Dose-dependent effect | Activity [8]: 80% | Activity [9]: 73% | Activity [10]: 95% | AUC(0-inf) [11]: 1690 ng·h/mL | inhibition [12]: > 60% | Activity [13]: 100% | Activity [14]: 82% | Tmax [15]: 19.8 min | Activity [16]: 100% | Activity [17]: 96% | Activity [18]: 100% | Activity [19]: 0% | Activity [20]: 63% | Activity [21]: 83% | Activity [22]: 0.3% | AUC(0-t) [23]: 1680 ng·h/mL | Activity [24]: 57% | Activity [25]: 94% | Activity [26]: 100%
